# In patent US20260306642A1, “STAT DEGRADERS AND USES THEREOF” (Recludix Pharma, Inc., priority 2023, published 2026):
# Columns and labels:
# pSTAT6 = biological target: T1, pSTAT6 (Homo sapiens, UniProt P42226); test: MSD-pSTAT-PBMC Assay (pSTAT6, IL-4 stimulated); type: cell-based; conditions: compound 3 hrs, then 1 ng/mL IL-4 10 min, pY641-STAT6, read-out: pSTAT6 IC50
# T1 sequence (P42226 1-847): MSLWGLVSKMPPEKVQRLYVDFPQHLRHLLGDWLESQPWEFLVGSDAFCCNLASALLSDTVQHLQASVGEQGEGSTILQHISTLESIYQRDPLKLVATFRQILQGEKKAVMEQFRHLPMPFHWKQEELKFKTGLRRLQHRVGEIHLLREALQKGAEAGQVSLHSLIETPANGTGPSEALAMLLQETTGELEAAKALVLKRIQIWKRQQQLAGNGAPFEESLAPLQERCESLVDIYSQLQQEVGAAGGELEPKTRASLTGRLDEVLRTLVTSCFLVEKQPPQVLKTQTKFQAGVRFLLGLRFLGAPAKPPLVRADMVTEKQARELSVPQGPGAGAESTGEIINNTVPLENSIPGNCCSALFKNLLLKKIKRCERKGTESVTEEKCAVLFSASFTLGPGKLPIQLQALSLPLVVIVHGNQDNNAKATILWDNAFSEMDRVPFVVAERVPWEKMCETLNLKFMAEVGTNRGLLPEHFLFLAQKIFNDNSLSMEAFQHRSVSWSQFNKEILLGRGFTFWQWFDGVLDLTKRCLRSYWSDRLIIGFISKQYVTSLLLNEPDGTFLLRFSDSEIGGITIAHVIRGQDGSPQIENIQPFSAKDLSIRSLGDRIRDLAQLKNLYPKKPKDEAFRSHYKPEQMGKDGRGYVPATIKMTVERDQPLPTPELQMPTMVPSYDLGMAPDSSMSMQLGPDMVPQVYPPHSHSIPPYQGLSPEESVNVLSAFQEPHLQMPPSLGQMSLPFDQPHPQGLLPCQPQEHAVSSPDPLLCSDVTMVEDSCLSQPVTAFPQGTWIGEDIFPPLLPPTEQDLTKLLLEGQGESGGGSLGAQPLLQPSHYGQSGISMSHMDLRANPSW
# Description: Cryopreserved Peripheral Blood Mononuclear Cells (PBMC) are from AllCells. Recombinant Human IL-4 and IL-6 are from Peprotech. Mouse monoclonal anti-STAT3 antibody, rabbit monoclonal anti-pY705-STAT3 antibody, rabbit monoclonal Anti-pY641-STAT6 antibody, and lysis buffer are from Cell Signaling Technology (CST). Mouse monoclonal anti-STAT6 antibody is from BioLegend. Assay plates, blocker, and anti-rabbit secondary antibody are from Meso Scale Discovery (MSD).
# Cryopreserved PBMCs were thawed out and allowed to recover overnight in IMDM+10% heat-inactivated FBS prior to plating 50,000 (STAT3) or 25,000 (STAT6) cells per well in 96-well U-bottom tissue culture plates. Cells were treated with compound for 3 hrs, then stimulated with 10 ng/mL IL-6 (STAT3) or 1 ng/mL IL-4 (STAT6) for 10 min. Cells were then spun down and washed with ice-cold PBS prior to lysing the cell pellet with 1× lysis buffer (CST) with 1× HALT protease and phosphatase inhibitor cocktail (Thermo). Lysates were transferred to and incubated overnight at 4° C. with shaking in QuickPlex 96-well high bind assay plates (MSD) pre-coated overnight with 30 μL per well of […] mouse monoclonal anti-STAT3 antibody (STAT3) or 2 μg/mL mouse monoclonal anti-STAT6 antibody (STAT6) in 1× PBS, and pre-blocked for 1 hour with 3% Blocker-A (MSD). Captured protein in the assay plates were then washed and probed with 25 μL per well of […] rabbit monoclonal anti-pY705-STAT3 antibody (STAT3) or […] rabbit monoclonal Anti-pY641-STAT6 antibody (STAT6) in 1% Blocker-A for 1 hour at room temperature with shaking, then washed and probed with 25 ul per well of 1 ug/ml Sulfo-TAG Labeled Goat Anti-Rabbit Antibody (MSD) in 1% Blocker-A for 1 hour at room temperature with shaking. Assay plates were then washed and 150 μL of 1× Read Buffer-T (MSD) was added to each well prior to reading on an SQ120 MSD Plate Reader. Assay signal from each sample was subtracted by the signal from unstimulated control wells and normalized to DMSO control wells. IC50 values were calculated using Graph Pad Prism Dose-Response Nonlinear Regression with variable slope. For both pSTAT3 and pSTAT6 A=≤100 nM; B=>100-1000 nM; C=>1000-3000 nM; and D=>3 μM.
# STAT6 = biological target: T2, STAT6 (Homo sapiens, UniProt P42226); test: STAT6 Fluorescence Polarization (FP) Assay; type: binding
# T2 construct: Recombinant STAT6 protein (STAT6(W123-T658))
# T2 sequence (P42226 123-658): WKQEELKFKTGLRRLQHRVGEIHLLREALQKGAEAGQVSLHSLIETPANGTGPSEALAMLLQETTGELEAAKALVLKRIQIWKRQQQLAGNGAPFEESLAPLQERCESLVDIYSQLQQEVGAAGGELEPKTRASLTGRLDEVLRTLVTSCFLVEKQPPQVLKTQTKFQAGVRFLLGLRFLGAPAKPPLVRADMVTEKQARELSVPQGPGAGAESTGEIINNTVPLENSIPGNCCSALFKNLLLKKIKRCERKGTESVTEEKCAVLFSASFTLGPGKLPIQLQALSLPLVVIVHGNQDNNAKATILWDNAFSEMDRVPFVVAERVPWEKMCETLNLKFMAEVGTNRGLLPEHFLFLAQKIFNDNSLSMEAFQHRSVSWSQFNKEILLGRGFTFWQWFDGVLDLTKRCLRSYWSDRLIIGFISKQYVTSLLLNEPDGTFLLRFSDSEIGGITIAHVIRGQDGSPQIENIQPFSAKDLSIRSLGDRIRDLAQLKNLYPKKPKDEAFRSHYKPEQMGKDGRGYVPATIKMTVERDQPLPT
# How it was run: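 STAT6(W123-T658) at 250 nM with 2 nM 5-FAM-ApYKPFQDLI-NH2 probe in HEPES pH 7.4, 50 mM NaCl, EDTA, Tween 20, DTT, 1% DMSO. FP read after 45 min at room temperature; IC50 from nonlinear fit of mP versus log concentration.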
# STAT3 = biological target: T3, STAT3 (Homo sapiens, UniProt P40763); test: STAT3 Fluorescence Polarization (FP) Assay; type: binding
# T3 construct: Recombinant STAT3 protein (STAT3(G127-I722))
# How it was run: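 Recombinant STAT3 (G127–I722, 25 nM) was mixed with 2 nM 5-FAM-GpYLPQTV-NH2 probe in HEPES pH 7.4 buffer with 1% DMSO and serially diluted compound. Fluorescence polarization was read after 45 min at room temperature. IC50 came from nonlinear regression of mP versus log concentration and was binned A (≤100 nM), B (>100–1000 nM), C (>1–10 μM) or D (>10 μM).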
# T3 sequence (P40763 127-722): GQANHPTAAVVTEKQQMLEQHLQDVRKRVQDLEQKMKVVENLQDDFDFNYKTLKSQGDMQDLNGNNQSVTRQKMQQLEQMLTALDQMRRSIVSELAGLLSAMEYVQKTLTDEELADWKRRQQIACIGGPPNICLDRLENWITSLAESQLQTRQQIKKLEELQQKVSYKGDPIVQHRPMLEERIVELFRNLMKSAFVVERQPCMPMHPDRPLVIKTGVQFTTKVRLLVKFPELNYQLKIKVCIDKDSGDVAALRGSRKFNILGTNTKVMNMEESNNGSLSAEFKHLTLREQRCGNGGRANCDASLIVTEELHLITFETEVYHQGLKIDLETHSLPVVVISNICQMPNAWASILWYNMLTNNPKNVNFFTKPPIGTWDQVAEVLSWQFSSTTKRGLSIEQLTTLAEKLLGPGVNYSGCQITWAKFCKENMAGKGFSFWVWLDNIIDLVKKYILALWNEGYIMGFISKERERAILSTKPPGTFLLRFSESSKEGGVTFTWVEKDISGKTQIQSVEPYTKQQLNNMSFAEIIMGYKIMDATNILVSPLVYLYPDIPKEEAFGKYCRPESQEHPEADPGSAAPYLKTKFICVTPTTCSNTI
IC50 (pSTAT6),IC50 (STAT6),IC50 (STAT3),Structure (SMILES)
> 3000 nM,300 to 3000 nM,1000 to 10000 nM,"O=C1CCC(N2Cc3c(OCCOCCOCCn4ccc([C@@H]5CN(C(=O)[C@@H]6CC[C@@H]7CCCC[C@H](NC(=O)c8cc9cc(C(F)(F)P(=O)(O)O)ccc9s8)C(=O)N76)C6(CC6)C5)cc4=O)cccc3C2=O)C(=O)N1 (stereo partly drawn) [Compound 27, ((2-(((3S,6S,10aS)-3-((6R)-6-(1-(2-(2-(2-((2-(2,6-dioxopiperidin-3-yl)-1-oxoisoindolin-4-yl)oxy)ethoxy)ethoxy)ethyl)-2-oxo-1,2-dihydropyridin-4-yl)-4-azaspiro[2.4]heptane-4-carbonyl)-5-oxodecahydropyrrolo[1,2-a]azocin-6-yl)carbamoyl)benzo[b]thiophen-5-yl)difluoromethyl)phosphonic acid]"
1000 to 3000 nM,300 to 3000 nM,100 to 1000 nM,"N#CC1CN(C(=O)C2CCC3CCCCC(NC(=O)c4cc5cc(C(F)(F)P(=O)(O)O)ccc5s4)C(=O)N32)CC1c1cccc(OCCOCCOc2cccc3c2CN(C2CCC(=O)NC2=O)C3=O)c1 [Compound 16, ((2-(((3S,6S,10aS)-3-((rel-3S,4R)-3-cyano-4-(3-(2-(2-((2-(2,6-dioxopiperidin-3-yl)-1-oxoisoindolin-4-yl)oxy)ethoxy)ethoxy)phenyl)pyrrolidine-1-carbonyl)-5-oxodecahydropyrrolo[1,2-a]azocin-6-yl)carbamoyl)benzo[b]thiophen-5-yl)difluoromethyl)phosphonic acid]"

Structure (SMILES),IC50 (pSTAT6),IC50 (STAT6),IC50 (STAT3)
"N#C[C@@H]1CN(C(=O)[C@@H]2CC[C@@H]3CCCC[C@H](NC(=O)c4cc5cc(C(F)(F)P(=O)(O)O)ccc5s4)C(=O)N32)C[C@H]1c1cccc(OCCCCOc2ccc(C3CCC(=O)NC3=O)cc2)c1 (mixture of isomers) [Compound 3, trans-((2-(((3S,6S,10aS)-3-(3-cyano-4-(3-(4-(4-(2,6-dioxopiperidin-3-yl)phenoxy)butoxy)phenyl)pyrrolidine-1-carbonyl)-5-oxodecahydropyrrolo[1,2-a]azocin-6-yl)carbamoyl)benzo[b]thiophen-5-yl)difluoromethyl)phosphonic acid]",1000 to 3000 nM,< 300 nM,100 to 1000 nM
